Experimental data: patent publication US9481637B2, “Compounds for the treatment of seizures and other central nervous systems disorders and conditions” (Ketogen Inc., priority 2014, dated 2016)

Key:
Format in all cases: in vivo
[1] = test system: 6 Hz-induced psychomotor seizures in CD-1 mice; experiment: 6 Hz psychomotor seizure test; conditions: for incidence of psychomotor seizures / mice protected from psychomotor seizure: 1 h pretreatment; for incidence of psychomotor seizures: vs Vehicle
Source text: Male, experimentally naive CD-1 mice were used in these experiments. At a defined time following drug or vehicle pretreatment, all mice received an electrical stimulus (6 Hz, 0.2 ms pulse width, 3 s duration, 32 mA) via corneal electrodes moistened with saline (ECT unit 57800; Ugo Basile). Preliminary experiments established that these stimulus parameters elicited a psychomotor seizure, defined as the expression of at least one of the following behaviors: stun/immobility, forelimb clonus, straub tail, lateral head movement, in >95% of control animals. Protection was defined as complete absence of all the above behaviors within 20 s of stimulus delivery. The effective dose of compound necessary to protect against psychomotor seizures to 50% of controls (i.e. ED50) was determined by curve fitting program.
(§1) Male mice (body wt. 20-40 g) were used for all studies. Mice were used in one of the following 4 seizure tests: maximal electroshock seizure (MES) test, subcutaneous injection of pentylenetetrazol (scPTZ) test, seizures induced by 6 Hz stimulation (6 Hz), and corneal kindled seizures. These tests were selected because no single test detects all known anti-epileptic drugs (AED's), but all currently known AED's are detected as active (i.e. prevent seizures) in at least one of these tests. Subjects were tested in one of the 4 seizure tests following a defined time after treatment with either test drug or vehicle control. Following administration of test drug or vehicle by either the oral, subcutaneous or intraperitoneal route, the animals were tested according to one of the methods outlined below (1-4). Typically the pretreatment time was 60 minutes although in some cases this varied from 30 min to 4 h.
3. 6 Hz Psychomotor Seizure Test:
Male CD-1 mice received an electrical stimulus (6 Hz, 0.2 ms pulse width, 3 s duration, 32 mA) via corneal electrodes moistened with saline (ECT unit 57800; Ugo Basile). These stimulus parameters should elicit a psychomotor seizure, defined as the expression of at least one of the following behaviours: stun/immobility, forelimb clonus, straub tail, vibrissae tremor, lateral head movement, in >95% of control animals within 30 s of stimulus delivery. To establish drug efficacy, test drug or vehicle was administered at a defined timepoint prior to the 6 Hz test, to separate experimental groups. The effect of treatment on subsequent seizure was noted. Protection is defined as complete absence of all the above behaviours within 20 s of stimulus delivery. The experiment was terminated immediately once the endpoint was met.

[2] = test system: scPTZ-induced seizures in CD-1 mice; experiment: s.c. pentylenetetrazol seizure test (scPTZ test)
Source text: as §1
2. s.c. Pentylenetetrazol Seizure Test (PTZ Test):
Male CD-1 mice received a single subcutaneous injection of pentylenetetrazol (PTZ: 85 mg/kg). This dose of PTZ should elicit a clonic seizure in >95% of control animals. Following PTZ injection, the animals were immediately transferred to single observation cages and observed continuously for 30 min. To establish drug efficacy, test drug or vehicle was administered at a defined timepoint prior to the PTZ administration, to separate experimental groups. The effect of treatment on subsequent seizure was noted. Protection is defined as complete absence of a clonic seizure, including a forelimb clonus, over the 30 min observation period. In the event of a seizure, the onset latency from PTZ injection was recorded. The experiment was terminated immediately once the endpoint was met, or in the case of protection, at the completion of the 30 min test period.

[3] = test system: MES-induced tonic seizures in CD-1 mice; experiment: Maximal electroshock test (MES test)
Source text: as §1
1. Maximal Electroshock Test (MES Test):
Male CD-1 mice received a maximal electroshock (45 mA, 0.2 s duration, 60 Hz) via corneal electrodes moistened with saline (shock stimulator type 221; Harvard apparatus). This stimulus intensity should elicit a full tonic seizure in >95% of control animals. Protection is defined as absence of a full tonic seizure within 15 s of stimulus delivery. To establish drug efficacy, test drug or vehicle was administered at a defined timepoint prior to the MES test, to separate experimental groups. The experiment was terminated immediately once the endpoint was met.

[4] = test system: corneal kindled seizures in CD-1 mice; experiment: Mouse corneal kindling; conditions: 75 and 300 mg/kg; IP and oral routes
Source text: as §1
4. Mouse Corneal Kindling:
Male CD-1 mice (body wt. 20-40 g) were used for these studies. There are 3 phases to the procedure: (1) kindling development phase, (2) kindling stability/persistence phase, and (3) drug testing phase.
1. […]
Drug testing was conducted using a repeated measures design with mice receiving up to 4 doses of a test drug and control treatments in a counterbalanced sequence. […] For each stimulation, the kindling score was assessed according to the Racine (1972) rating scale. […]

[5] = 75-600 mg/kg IP and oral routes
[6] = 150, 300 and 600 mg/kg IP and 600 mg/kg oral
[7] = 37.5-600 mg/kg IP and oral routes

Compound	incidence of psychomotor seizures [1, 5]	mice protected from psychomotor seizure ([1]; 300-600 mg/kg IP)	ScPTZ EC50 (mg/kg) ([2]; Dose route IP)	ScPTZ EC50 (mmol/kg) ([2]; Dose route IP)	ScPTZ EC50 (mg/kg) ([2]; Dose route PO)	ScPTZ EC50 (mmol/kg) ([2]; Dose route PO)	6 Hz EC50 (mg/kg) ([1]; Dose route IP)	6 Hz EC50 (mmol/kg) ([1]; Dose route IP)	6 Hz EC50 (mg/kg) ([1]; Dose route PO)	6 Hz EC50 (mmol/kg) ([1]; Dose route PO)	MES EC50 (mg/kg) ([3]; Dose route IP)	MES EC50 (mmol/kg) ([3]; Dose route IP)	MES EC50 (mg/kg) ([3]; Dose route PO)	MES EC50 (mmol/kg) ([3]; Dose route PO)	other results
CCCCCCCCC(=O)NC(=O)[C@H](CC)N1CCCC1=O [compound 21, (S)—N-(2-(2-oxopyrrolidin-1-yl)butanoyl)nonanamide]	dose-related decrease in the incidence of seizures	all mice	–	–	–	–	–	–	–	–	–	–	–	–	–
CCCCC1CCC(C(=O)NC(=O)[C@H](CC)N2CCCC2=O)CC1 (stereo partly drawn) [compound 26, (S)-4-butyl-N-(2-(2-oxopyrrolidin-1-yl)butanoyl)cyclohexane-1-carboxamide]	–	all mice	230 mg/kg	0.68 mmol/kg	300 mg/kg	0.89 mmol/kg	80 mg/kg	0.24 mmol/kg	88 mg/kg	0.26 mmol/kg	>600 mg/kg	>1.78 mmol/kg	>600 mg/kg	>1.78 mmol/kg	scPTZ-induced seizures (incidence, onset latency) vs vehicle control (FIGS. 15-16) [2, 6]: reduced seizures; incidence of psychomotor seizures [1, 7]: dose-related decrease in the incidence of seizures; MES-induced tonic seizures vs vehicle control (FIG. 14) ([3]; 300 and 600 mg/kg IP and 600 mg/kg oral): reduced seizures
CCCCCCCCCC(=O)NC(=O)[C@H](CC)N1CCCC1=O [compound 22, (S)—N-(2-(2-oxopyrrolidin-1-yl)butanoyl)decanamide]	dose-related decrease in the incidence of seizures	–	–	–	–	–	–	–	–	–	–	–	–	–	mice protected from psychomotor seizure ([1]; 600 mg/kg IP): all mice
CCCCCCCCC(=O)NCC1(CC(=O)O)CCCCC1 [compound 4, 2-(1-(nonanamidomethyl)cyclohexyl)acetic acid]	–	–	–	–	–	–	–	–	–	–	–	–	–	–	mice protected from psychomotor seizure ([1]; 600 mg/kg IP): all mice; mice protected from psychomotor seizure ([1]; 600 mg/kg oral): No mice; incidence of psychomotor seizures ([1]; 150-600 mg/kg IP): dose-related decrease in the incidence of seizures
CCCCCCCC(=O)NC(=O)[C@H](CC)N1CCCC1=O [compound 20, (S)—N-(2-(2-oxopyrrolidin-1-yl)butanoyl)octanamide]	–	–	>600 mg/kg	>2.02 mmol/kg	>600 mg/kg	>2.02 mmol/kg	90 mg/kg	0.3 mmol/kg	130 mg/kg	0.44 mmol/kg	>600 mg/kg	>2.02 mmol/kg	>600 mg/kg	>2.02 mmol/kg	scPTZ-induced seizures vs vehicle control (FIG. 9) ([2]; 300 and 600 mg/kg IP): reduced seizures; 6 Hz-induced seizures vs vehicle control (FIG. 8) ([1]; 75, 150, 300 or 600 mg/kg 1 hr pre-stimulation, 300 mg/kg at 2 and 4 hr, oral or IP): reduced seizures; MES-induced tonic seizures vs vehicle control (FIG. 7) ([3]; 600 mg/kg IP): reduced seizures; corneal kindled seizures (Racine kindling score) vs vehicle control (FIG. 10) [4]: reduced seizures
CCCCC(CC)CCC(=O)NC(=O)[C@H](CC)N1CCCC1=O (stereo partly drawn) [compound 25, 4-ethyl-N—((S)-2-(2-oxopyrrolidin-1-yl)butanoyl)octanamide]	–	all mice	310 mg/kg	0.95 mmol/kg	600 mg/kg	1.85 mmol/kg	46 mg/kg	0.14 mmol/kg	50 mg/kg	0.15 mmol/kg	397 mg/kg	1.22 mmol/kg	>600 mg/kg	>1.85 mmol/kg	scPTZ-induced seizures (incidence, onset latency) vs vehicle control (FIGS. 12-13) [2, 6]: reduced seizures; incidence of psychomotor seizures [1, 7]: dose-related decrease in the incidence of seizures; MES-induced tonic seizures vs vehicle control (FIG. 11) [3, 6]: reduced seizures
CCCCCCCCCC(=O)NC[C@H](CC(=O)O)CC(C)C [compound 14, (S)-3-(decanamidomethyl)-5-methylhexanoic acid]	dose-related decrease in the incidence of seizures	all mice	–	–	–	–	–	–	–	–	–	–	–	–	–
